Source: publication PMC3508466 (Chemistry & biology, 2012)
Where “and” joins values, the source holds several entries; their conditions need not be identical. Equal entries are not always repeated. Entries after “also recorded” stand apart in the source; their conditions may differ. Where two headings read alike, the source gives them in different places.

Columns and labels:
ClC-ec1 [1] = target: T1, ClC-ec1 (Escherichia coli, UniProt P37019); test: Cl− efflux assay, ClC-ec1 reconstituted into liposomes; format: biochemical, E. coli; settings: for inhibition of ClC-ec1 by parent compounds: concentrations up to 1 mM
T1 sequence (P37019 whole entry): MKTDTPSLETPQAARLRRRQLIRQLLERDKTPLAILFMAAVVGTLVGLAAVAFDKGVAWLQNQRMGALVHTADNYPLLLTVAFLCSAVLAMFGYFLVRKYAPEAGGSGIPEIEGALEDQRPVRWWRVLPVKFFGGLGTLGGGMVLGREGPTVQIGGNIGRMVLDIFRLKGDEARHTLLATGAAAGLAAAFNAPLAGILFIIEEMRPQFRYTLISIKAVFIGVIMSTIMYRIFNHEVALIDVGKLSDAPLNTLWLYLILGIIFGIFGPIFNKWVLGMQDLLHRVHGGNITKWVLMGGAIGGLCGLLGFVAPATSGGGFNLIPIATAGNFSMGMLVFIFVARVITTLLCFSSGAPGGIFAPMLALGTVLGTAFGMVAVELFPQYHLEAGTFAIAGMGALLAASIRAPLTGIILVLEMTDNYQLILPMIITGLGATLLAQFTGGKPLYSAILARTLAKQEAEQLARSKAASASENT

ClC-ec1 [2] = target: T1, ClC-ec1; settings: for Hill coefficient n / Imax (maximal inhibition): cis chamber
human ClC-1 = human ClC-1 (Homo sapiens, UniProt P35523); test: Inside-out patches excised from Xenopus oocytes expressing human ClC-1; format: cell-based; settings: 30 μM
Chain of human ClC-1 (P35523 whole entry): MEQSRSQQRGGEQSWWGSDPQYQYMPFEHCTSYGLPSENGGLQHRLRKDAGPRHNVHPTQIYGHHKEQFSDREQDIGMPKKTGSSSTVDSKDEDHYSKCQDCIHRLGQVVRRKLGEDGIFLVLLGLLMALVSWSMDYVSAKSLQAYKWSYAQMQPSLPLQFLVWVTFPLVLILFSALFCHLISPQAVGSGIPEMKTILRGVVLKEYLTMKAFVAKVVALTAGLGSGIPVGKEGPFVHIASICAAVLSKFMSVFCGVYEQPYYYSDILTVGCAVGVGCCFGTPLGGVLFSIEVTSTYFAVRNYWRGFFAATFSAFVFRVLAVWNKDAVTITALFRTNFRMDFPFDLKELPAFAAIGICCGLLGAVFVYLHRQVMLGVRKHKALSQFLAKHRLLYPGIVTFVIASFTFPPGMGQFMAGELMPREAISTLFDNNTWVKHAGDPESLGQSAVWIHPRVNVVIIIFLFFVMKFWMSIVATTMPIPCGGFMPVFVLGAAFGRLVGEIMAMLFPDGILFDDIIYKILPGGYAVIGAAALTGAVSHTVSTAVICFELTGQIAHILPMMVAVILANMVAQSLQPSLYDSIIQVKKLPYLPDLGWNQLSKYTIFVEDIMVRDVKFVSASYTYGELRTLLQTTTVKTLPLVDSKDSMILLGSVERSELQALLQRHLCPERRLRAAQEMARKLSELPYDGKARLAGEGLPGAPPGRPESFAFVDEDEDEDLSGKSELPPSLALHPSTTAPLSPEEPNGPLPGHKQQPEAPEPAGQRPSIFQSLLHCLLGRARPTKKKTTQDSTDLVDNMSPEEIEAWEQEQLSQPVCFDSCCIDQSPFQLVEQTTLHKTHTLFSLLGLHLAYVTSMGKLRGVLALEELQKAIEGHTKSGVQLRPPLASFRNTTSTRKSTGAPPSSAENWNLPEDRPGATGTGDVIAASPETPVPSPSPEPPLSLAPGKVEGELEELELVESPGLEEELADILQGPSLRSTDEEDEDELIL

[3] = tested on: ClC-ec1 R160, R167 and R174 mutant; test: Cl− efflux assay, ClC-ec1 with R160, R167 and R174 mutated; format: biochemical; settings: E. coli polar lipids
[4] = tested on: ClC-ec1 R23 and K30 mutant; test: Cl− efflux assay, ClC-ec1 with R23 and K30 mutated; format: biochemical, E. coli
[5] = tested on: ClC-ec1 R17, R18, and R19 mutant; test: Cl− efflux assay, ClC-ec1 with R17, R18 and R19 mutated; format: biochemical, E. coli
[6] = tested on: ClC-ec1 intracellular vestibule triple mutant; format: biochemical, E. coli
ClC-ec1 K169A mutant = ClC-ec1 K169A mutant (Escherichia coli, UniProt P37019, K169A); settings: E. coli polar lipids
Chain of ClC-ec1 K169A mutant (P37019 whole entry K169A): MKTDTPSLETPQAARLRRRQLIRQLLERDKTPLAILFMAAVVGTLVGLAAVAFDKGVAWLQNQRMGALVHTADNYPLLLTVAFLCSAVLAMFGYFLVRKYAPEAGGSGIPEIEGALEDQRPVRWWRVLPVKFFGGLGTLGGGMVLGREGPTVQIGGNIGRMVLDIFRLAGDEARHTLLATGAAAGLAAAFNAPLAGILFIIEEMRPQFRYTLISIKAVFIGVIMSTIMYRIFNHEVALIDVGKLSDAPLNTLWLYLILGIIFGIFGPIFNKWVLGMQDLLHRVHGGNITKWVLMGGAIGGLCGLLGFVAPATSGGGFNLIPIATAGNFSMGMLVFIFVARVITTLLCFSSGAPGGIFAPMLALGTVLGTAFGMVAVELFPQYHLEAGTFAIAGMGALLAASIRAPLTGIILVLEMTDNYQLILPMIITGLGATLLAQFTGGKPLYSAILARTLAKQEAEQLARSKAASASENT

ClC-ec1 [7] = target: T1, ClC-ec1
[8] = target: ClC-ec1 R28A/K216A mutant (Escherichia coli, UniProt P37019, K216A/R28A); settings: E. coli polar lipids
Chain of ClC-ec1 R28A/K216A mutant (P37019 whole entry R28A/K216A): as the sequence (P37019 whole entry K169A) above, with R28A, A169K, K216A counted along it

O=C(O)C(Cc1ccc(Cl)cc1)Oc1ccc(Cl)cc1 (stereo not drawn) [2-(p-chlorophenoxy)-3-(4-chlorophenyl)propionic acid]
inhibition of ClC-ec1 by known CLC channel inhibitors (lead panel) (ClC-ec1 [1]): None of these compounds inhibited ClC-ec1

O=C(O)c1c2ccccc2cc2ccccc12 [9-anthracene carboxylate]
inhibition of ClC-ec1 by known CLC channel inhibitors (lead panel) (ClC-ec1 [1]): None of these compounds inhibited ClC-ec1

Nc1ccc(C=Cc2ccc(N)cc2S(=O)(=O)O)c(S(=O)(=O)O)c1 [DADS, 4,4′-diaminostilbene-2,2′-disulfonate]
inhibition of ClC-ec1 by known CLC channel inhibitors (lead panel) (ClC-ec1 [1]): None of these compounds inhibited ClC-ec1 | inhibition of ClC-ec1 by parent compounds (ClC-ec1 [1]): neither parent compound detectably inhibited ClC-ec1

O=S(=O)(O)c1cc(N=C=S)ccc1C=Cc1ccc(N=C=S)cc1S(=O)(=O)O [DIDS, 4,4′-diisothiocyano-2,2′-stilbenedisulfonic acid, reference compound]
effect of DIDS added after OADS to the same chamber (ClC-ec1 [2]): has no effect | effect of DIDS applied to the opposite chamber from OADS (ClC-ec1 [2]): significant additional inhibition

O=C(O)c1cc([N+](=O)[O-])ccc1NCCCc1ccccc1 [NPPB, 5-nitro-2-(3-phenylpropylamino)benzoic acid]
inhibition of ClC-ec1 by known CLC channel inhibitors (lead panel) (ClC-ec1 [1]): None of these compounds inhibited ClC-ec1

CCCCCCCC(=O)Nc1ccc(C=Cc2ccc(NC(=O)CCCCCCC)cc2S(=O)(=O)O)c(S(=O)(=O)O)c1 [OADS, 4,4′-octanamidostilbene-2,2′-disulfonate]
inhibition of ClC-ec1 (ClC-ec1 [1]; 30 μM, PE/PG liposomes): 84% | Ki (ClC-ec1 [1]; PE/CLN liposomes): 32 µM | Hill coefficient n (ClC-ec1 [1]; PE/PG liposomes): 1.9 | Ki (ClC-ec1 [1]; PE/PG liposomes): 7.3 µM | Hill coefficient n (ClC-ec1 [1]; liposomes from E. coli polar lipids): 1.9 | Ki (ClC-ec1 [1]; read-out: Ki (apparent affinity, concentration for half-maximal inhibition), liposomes from E. coli polar lipids, pH 4.0): ~30 µM and 29 µM | increase in potency compared to either parent compound (ClC-ec1 [1]; versus octanoic acid and DADS): over 100 fold | inhibition of ClC-1 (human ClC-1): 20% | influence of mutation on OADS inhibition [3]: had no influence | effect of mutation on OADS inhibition [4]: had no effect on OADS inhibition | effect of mutation on OADS inhibition [5]: had no effect on OADS inhibition | effect of mutation on inhibition by OADS [6]: has no effect on inhibition by OADS | effect of OADS applied to the opposite chamber from DIDS (ClC-ec1 [2]): significant additional inhibition | time to complete reversal of inhibition after perfusion with OADS-free solution (ClC-ec1 [2]; 3.3 μM OADS in trans chamber, 4 min is minimum for full perfusion): 4 to 10 min | effect of OADS added after DIDS to the same (cis) chamber (ClC-ec1 [2]; 1 mM DIDS then 15 μM OADS): no additional inhibition; also recorded: has no effect | Hill coefficient n (ClC-ec1 [2]; +100 mV): 3.9 | Imax (maximal inhibition) (ClC-ec1 [2]; +100 mV): 34% | maximal inhibition (ClC-ec1 [2]; OADS added to cis chamber, voltage not specified): ~ 40% | Hill coefficient n (ClC-ec1 [2]; −100 mV): 6.1 | Imax (maximal inhibition) (ClC-ec1 [2]; −100 mV): 40% | Ki (ClC-ec1 K169A mutant): 68 µM | change in sensitivity to OADS versus wild type (ClC-ec1 K169A mutant): two-fold decrease in sensitivity | effect on Cl− binding to ClC-ec1 (ClC-ec1 [7]): no significant effect on Cl^− binding to ClC-ec1

CCCCCCCC(=O)Nc1ccc(/C=C\c2ccc(NC(=O)CCCCCCC)cc2S(=O)(=O)O)c(S(=O)(=O)O)c1 [cis-OADS]
ClC-1 inhibition, cis versus trans isomer (human ClC-1): equally inhibited by both the cis and trans-OADS isomers | potency on R28A/K216A relative to trans-OADS [8]: just as potently as trans-OADS

O=C(O)c1ccccc1Nc1cccc(C(F)(F)F)c1 [flufenamic acid]
inhibition of ClC-ec1 by known CLC channel inhibitors (lead panel) (ClC-ec1 [1]): None of these compounds inhibited ClC-ec1

O=C(O)c1cccnc1Nc1cccc(C(F)(F)F)c1 [niflumic acid]
inhibition of ClC-ec1 by known CLC channel inhibitors (lead panel) (ClC-ec1 [1]): None of these compounds inhibited ClC-ec1

CCCCCCCC(=O)O [octanoic acid]
inhibition of ClC-ec1 by known CLC channel inhibitors (lead panel) (ClC-ec1 [1]): None of these compounds inhibited ClC-ec1 | inhibition of ClC-ec1 by parent compounds (ClC-ec1 [1]): neither parent compound detectably inhibited ClC-ec1
